What was measured:
[1] = tested on: dopaminergic neurons in rat primary mesencephalic neuron-glia cultures; assay: [3H]DA uptake in LPS-treated mesencephalic neuron-glia cultures; format: cell-based; conditions: LPS 10 ng/ml, 7 days; for LPS-induced decrease in [3H]-dopamine uptake: 30 min pretreatment
[2] = tested on: GalN/LPS-induced liver gene expression; assay: Liver gene expression (real-time RT-PCR) after GalN/LPS; format: in vivo, mouse
Source text: Total RNA was extracted from liver tissues (n=4 to 5) by Trizol reagent (Sigma, St. Louis, Mo.) and purified with an RNeasy column (Qiagen, Valencia, Calif.). Expression of the selected genes was quantified using real-time RT-PCR analysis that began by reverse transcribing the samples with MuLV reverse transcriptase and oligo-dT primers.
The SYBR green DNA PCR kit (Applied Biosystems, Foster City, Calif.) was used for real-time PCR analysis. The relative differences in expression between groups were expressed using cycle time (Ct) values and the relative differences between groups were expressed as relative increases setting control as 100%. Assuming that the Ct value is reflective of the initial starting copy and that there is 100% efficacy, a difference of one cycle is equivalent to a two-fold difference in starting copy.

superoxide = assay: Superoxide release (SOD-inhibitable cytochrome c reduction) after LPS; format: cell-based, rat
Experimental: The release of superoxide was determined by measuring the superoxide dismutase (SOD)-inhibitable reduction of cytochrome c. To measure the immediate release of superoxide from microglia-enriched or neuron-glia after stimulation, cultures grown in 96-well plates were switched to phenol red-free HBSS (50 μl/well). To each well was added 50 μl of HBSS containing vehicle or DM. The cultures were then incubated at about 37° C. for about 30 min followed by 50 μl of ferricytochrome c (100 μM) in HBSS, with and without 600 U/ml SOD, 50 μl of vehicle or LPS in HBSS. The absorbance at 550 nm was read with a SpectraMax Plus microplate spectrophotometer (Molecular Devices, Sunnyvale, Calif.).
This example tests whether or not post-treatment with DM is still neuroprotective in LPS-induced neurotoxicity. Neuron-glia co-cultures as prepared in Example 1 were first treated with LPS (20 ng/ml) for twelve hours, and then LPS was removed by removing the media from the cultures and washing twice with PBS. Different concentrations of DM (10^−5, 10^−10, and 10^−14 M) were then added to the cultures and incubation was continued for another 6 or 7 days. The DA uptake and the superoxide production were measured as in Example 1 and 5. Results are expressed as a percentage of the control cultures and are the mean±S.E.M of three to six experiments with triplicates in each experiment. ##, P<0.01 compared with control culture; *, P<0.05 compared with the LPS-treated culture.
Primary enriched-microglia cultures were prepared as in Example 1. […] The intracellular ROS concentrations and superoxide amounts were measured as in Example 5. The data are expressed as the percent of the control cultures and are the mean±SEM of three experiments performed in triplicate. *P<0.05, **P<0.01, compared to control.

[3] = ratio to control, 12 hr, DM 12.5 mg/kg sc x2

## Oc1ccc2c(c1)[C@@]13CCCC[C@H]1[C@@H](C2)NCC3 [3-HM, 3-hydroxymorphinan]
[1]; 3-HM 1-5 μM pretreatment
  LPS-induced reduction in DA uptake: significantly attenuated the LPS-induced reduction in DA uptake

## COc1ccc2c(c1)[C@@]13CCCC[C@H]1[C@@H](C2)N(C)CC3 [DM, d-3-methoxy-N-methylmorphinan]
[1]; DM 10^−5 and 10^−6 M
  LPS-induced decrease in [3H]-dopamine uptake: attenuated the LPS-induced decrease
[1]; DM 10^−8 to 10^−12 M
  LPS-induced decrease in [3H]-dopamine uptake: no protective effects
[2]; 12 hr after GalN/LPS, DM 12.5 mg/kg sc x2, controls 1.0, LPS/GalN alone 153.3 ± 6.4
  MIP-2 expression, LPS + DM: 39.0 ± 2.1 fold
[2]; 12 hr, DM 12.5 mg/kg sc x2, controls 1.0, LPS/GalN alone 7.4 ± 0.3
  GADD153 expression, LPS + DM: 2.7 ± 1.3 fold
[2]; 12 hr, DM 12.5 mg/kg sc x2, controls 1.0, LPS/GalN alone 8.45 ± 1.3
  ICAM-1 expression, LPS + DM: 5.05 ± 2.7 fold
[2]; 12 hr, DM 12.5 mg/kg sc x2, controls 1.0, LPS/GalN alone 13.7 ± 2.9
  mKC expression, LPS + DM: 5.8 ± 1.6 fold
[2]; 12 hr, DM 12.5 mg/kg sc x2, controls 1.0, LPS/GalN alone 24.6 ± 12.4
  GADD45 expression, LPS + DM: 5.3 ± 2.4 fold
[2]; 12 hr, DM 12.5 mg/kg sc x2, controls 1.0, LPS/GalN alone 25.3 ± 2.9
  IL-10 expression, LPS + DM: 15.0 ± 3.3 fold
[2]; 12 hr, DM 12.5 mg/kg sc x2, controls 1.0, LPS/GalN alone 28.0 ± 7.5
  c-jun/AP-1 expression, LPS + DM: 9.1 ± 0.8 fold
[2]; 12 hr, DM 12.5 mg/kg sc x2, controls 1.0, LPS/GalN alone 45.4 ± 3.6
  c-myc expression, LPS + DM: 18.4 ± 2.1 fold
[2]; 12 hr, DM 12.5 mg/kg sc x2, controls 1.0, LPS/GalN alone 94.2 ± 2.5
  Thrombospondin-1 expression, LPS + DM: 56.0 ± 1.57 fold
[2]; 12 hr, DM 12.5 mg/kg sc x2, controls 1.0, LPS/GalN alone 153.4 ± 13.3
  IL-6 expression, LPS + DM: 43.6 ± 6.3 fold
[2]; [3]
  GADD45, LPS + DM/Cont: 5.3 fold
  GADD153, LPS + DM/Cont: 2.7 fold
  ICAM-1, LPS + DM/Cont: 5.05 fold
  IL-6, LPS + DM/Cont: 43.6 fold
  IL-10, LPS + DM/Cont: 15 fold
  MIP-2, LPS + DM/Cont: 39.0 fold
  Thrombospondin-1, LPS + DM/Cont: 56.0 fold
  c-jun/AP-1, LPS + DM/Cont: 9.1 fold
  c-myc, LPS + DM/Cont: 18.4 fold
  mKC, LPS + DM/Cont: 5.8 fold
superoxide; DM 10^−5 M and 10^−14 M pretreatment
  LPS-induced increase in the release of superoxide: significantly decreased
superoxide; DM 10^−5 and 10^−14 M post-treatment, 24 h after LPS
  LPS-induced increase in superoxide production, post-treatment: significantly inhibited LPS-induced increase in superoxide production
superoxide; DM 10^−10 M pretreatment
  LPS-induced increase in the release of superoxide: no significant reduction
superoxide; DM 10^−10 M, pre- or post-treatment
  production of superoxide: neither pre-treatment nor post-treatment with DM at 10^−10 M significantly affected the production of superoxide
